According to patent US20180360037A1, “STEREOISOMER OF BROMADIOLONE, COMPOSITION AND RODENTICIDE BAIT COMPRISING SAME, AND METHOD FOR CONTROLLING TARGET RODENT PESTS” (priority 2015, published 2018):
Where two headings read alike, the source gives them in different places.

How the values were obtained:
[1] = format: in vivo, rat; conditions: for concentration of each enantiomer in rat liver: mixture of diastereoisomers, about 13 mg/kg per os on D0, from D+3, FIG. 3
Experimental: Separation of the configurational stereoisomers of bromadiolone is performed by high-pressure liquid chromatography (HPLC) on a LUX® Cellulose-1 chiral column (Phenomenex, Le Pecq, France) containing a chiral stationary phase constituted of particles of cellulose tris(3,5-dimethylphenyl carbamate), said particles having a mean size of 3 μm and having a mean pore size of 1000 Å. A mixture formed from acetonitrile (A) and water comprising 0.1% by volume of formic acid (B), with an A/B volume ratio of 80/20 and with a flow rate of 0.25 mL/minute in the chromatography column, is used as mobile phase. The concentration of the composition to be analysed is 1 μg of bromadiolone per millilitre of acetonitrile and the volume injected onto the column is 1 μL. Detection is performed by tandem mass spectrometry (MS/MS) in negative electrospray ionization (ESI) mode. The temperature of the nebulizer gas is 350° C. and its flow rate is 8 L/minute. The pressure of the nebulizer gas is brought to 2700 hPa. In particular, the MRM (“Multiple Reaction Monitoring”) transitions m/z 525.1→250.1 and m/z 525.1→181, corresponding to the bromadiolone signal, are detected.
About 0.525 g (±0.025 g) of rat liver is weighed out accurately and placed in a 50 mL polypropylene tube. 10 mL of acetone are added and the suspension is homogenized using an Ultra-Turrax® homogenizer/disperser for a time of about 30 seconds. The homogenizer/disperser shaft is rinsed with hot water and then twice with 20 mL of acetone in a polypropylene tube. The homogenate is centrifuged for 5 minutes at a centrifugation speed of 3000 rpm (revolutions per minute). The supernatant is collected and transferred into a test tube. The sample is subjected to evaporation under a stream of nitrogen (N2) at a temperature of 40° C. so as to form a dry extract.
1 mL of acetonitrile is added to the tube containing the dry extract so as to dissolve it. The acetonitrile solution is washed twice successively with 1 mL of hexane. The lipid-free extract is dried under a stream of nitrogen (N2) at a temperature of 40° C. and is then taken up in 0.5 mL of methanol and dissolved by vortex stirring. 0.5 mL of ultra-pure (Milli-Q) water is then added. The sample is vortex-homogenized.
1 mL of dichloromethane (CH2Cl2), then 1 mL of methanol (CH3OH), then 1 mL of ultra-pure (Milli-Q) water are passed through an Oasis HLB 1 cc cartridge (WAT094225, Waters). The lipid-free liver extract (1 mL MeOH/Milli-Q H2O) containing bromadiolone is then loaded onto the top of the preconditioned cartridge. The liver extract penetrates through the cartridge by gravity on contact with the solid phase of the cartridge. 1 mL of washing solution formed from methanol (CH3OH) and ultra-pure water (H2O) in a 90/10 volume proportion is loaded onto the top of the cartridge. The cartridge is dried by suction under vacuum connected to the bottom of the cartridge. 1 mL of eluting solution formed from dichloromethane (CH2Cl2) and methanol (CH3OH) in a 90/10 volume proportion is then loaded onto the top of the cartridge and an eluate comprising bromadiolone is collected at the bottom of the cartridge. The solvent of the eluate is evaporated off under a stream of nitrogen (N2) at a temperature of 40° C. The sample is taken up in 0.5 mL of acetonitrile and the acetonitrile solution containing bromadiolone is filtered through a 0.2 μm filter. […]

[2] = tested on: male laboratory rats (OFA, Sprague-Dawley 200 g); assay: Anticoagulant power of each configurational stereoisomer of bromadiolone (coagulation time, Quick time, of plasma of tube-fed rats); format: in vivo, rat; conditions: for anticoagulant effect (coagulation time, Quick time): 1.5 mg of enantiomer per kg rat by tube feeding on D0, up to D3, FIG. 4
Experimental: The following are administered to male laboratory rats (OFA, Sprague-Dawley 200 g) by tube feeding on D0: a composition comprising enantiomer E1 of said diastereoisomer D12 in a proportion of 1.5 mg of said enantiomer E1 per kilogram of rat; or a composition comprising enantiomer E2 of said diastereoisomer D1,2 in a proportion of 1.5 mg of said enantiomer E2 per kilogram of rat; or a composition comprising enantiomer E3 of said diastereoisomer D3,4 in a proportion of 1.5 mg of said enantiomer E3 per kilogram of rat; or a composition comprising enantiomer E4 of said diastereoisomer D3,4 in a proportion of 1.5 mg of said enantiomer E4 per kilogram of rat.
The rats receive vitamin K1 daily in a proportion of 0.1 unit of vitamin per 200 g of rat so as to keep them alive for 7 days or 14 days. However, the administration of vitamin K1 is stopped 48 hours before the rats are euthanized so as to allow evaluation of the Quick time without interference with the supplementation by tube feeding.
On these rats, blood is collected on D1, D3, D7 and D14 and measurement of the coagulation time (Quick time, expressed in seconds) of the plasma is performed using the “Neoplastine CI Determination of Prothrombin Time” kit (Diagnostica Stago, Asnière, France) by measurement on a Thrombotimer Option 2 Plus machine (Behnk Electronik, Norderstedt, Germany).

[3] = summary statement of the inventors

O=c1oc2ccccc2c(O)c1C(CC(O)c1ccc(-c2ccc(Br)cc2)cc1)c1ccccc1 (single isomer, unassigned) [enantiomer E3, 3-[3-(4′-bromo[1,1′-biphenyl]-4-yl)-3-hydroxy-1-phenylpropyl]-4-hydroxy-2H-1-benzopyran-2-one]
concentration of each enantiomer in rat liver ([1]; listed as E3): only enantiomer E1 remains in the rat liver
anticoagulant effect (coagulation time, Quick time) ([2]; listed as E3): contrary to the ingestion of 1.5 mg of said enantiomer E3

O=c1oc2ccccc2c(O)c1C(CC(O)c1ccc(-c2ccc(Br)cc2)cc1)c1ccccc1 (single isomer, unassigned) [enantiomer E4, 3-[3-(4′-bromo[1,1′-biphenyl]-4-yl)-3-hydroxy-1-phenylpropyl]-4-hydroxy-2H-1-benzopyran-2-one]
concentration of each enantiomer in rat liver ([1]; listed as E4): only enantiomer E1 remains in the rat liver
persistence in the liver of target rodent pests [1, 3]: sufficient to be rodenticidal
anticoagulant effect (coagulation time, Quick time) ([2]; listed as E4): sufficient to maintain an anticoagulant effect at least up to D3
anticoagulant activity compared with enantiomer E3 [2, 3]: higher anticoagulant activity than the anticoagulant activity of said enantiomer E3

O=c1oc2ccccc2c(O)c1C(CC(O)c1ccc(-c2ccc(Br)cc2)cc1)c1ccccc1 (single isomer, unassigned) [enantiomer E1, 3-[3-(4′-bromo[1,1′-biphenyl]-4-yl)-3-hydroxy-1-phenylpropyl]-4-hydroxy-2H-1-benzopyran-2-one]
concentration of each enantiomer in rat liver ([1]; listed as E1): remains in the rat liver

O=c1oc2ccccc2c(O)c1C(CC(O)c1ccc(-c2ccc(Br)cc2)cc1)c1ccccc1 (single isomer, unassigned) [enantiomer E2, 3-[3-(4′-bromo[1,1′-biphenyl]-4-yl)-3-hydroxy-1-phenylpropyl]-4-hydroxy-2H-1-benzopyran-2-one]
concentration of each enantiomer in rat liver ([1]; listed as E2): only enantiomer E1 remains in the rat liver
